# Read-outs that look alike come from different tables or passages of the source. No end group written: not given here.
# Key:
# [1] = test system: FcγIIb; assay type: binding
# [2] = test system: FcγIIIa; assay type: binding
# [3] = test system: human C1q; experiment: Reverse ELISA: inhibition of PAP immune complex binding to C1q coated plates
# [4] = test system: Fcγ1; assay type: binding
# [5] = test system: FcγIIa (H131 allele); assay type: binding
# [6] = test system: FcγIIb/c; assay type: binding
# [7] = test system: FcγIIIb (NA2); assay type: binding
# [8] = test system: recombinant human FcγIIa; assay type: binding
# Experimental: The results of 1:250 and 1:500 serial dilutions (ADE was most evident at serum dilutions of 1:250 to 1:500) of the DENV-IgG-IC were tested against inhibition of DENV-IgG-IC binding to huFcγRIIa coated microtiter wells. Results using huFcγRIIa coated wells with either a 1:250 dilution of DENV-IgG-IC with no inhibitor, a 1:250 dilution of DENV-IgG-IC with SEQ ID NO:20, a 1:500 dilution of DENV-IgG-IC with no inhibitor, and a 1:500 dilution of DENV-IgG-IC with SEQ ID NO:20 are shown in Table 5.
# [9] = test system: Dengue Virus recombinant NS1; assay type: binding; details: summary of Table 6
# Experimental: PAP IC were incubated with either no peptide or with SEQ ID NO:20 for one hour.
# [10] = test system: recombinant TNF-α; assay type: binding
# [11] = test system: FcγIIa (R131 allele); experiment: Reverse ELISA: inhibition of PAP-IC binding to FcγIIa (R131 allele) coated plates; details: PAP pre-incubated with peptide 1 h; positive control 1.599
# FcγIIIb (NA2), sequence (O75015 17-200): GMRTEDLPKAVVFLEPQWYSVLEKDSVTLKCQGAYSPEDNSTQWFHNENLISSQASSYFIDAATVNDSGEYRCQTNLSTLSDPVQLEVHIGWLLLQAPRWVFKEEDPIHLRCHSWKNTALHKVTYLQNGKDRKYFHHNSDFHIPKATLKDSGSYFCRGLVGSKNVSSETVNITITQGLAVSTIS
Substance,OD405 FcγIIb [1],OD405 FcγIIIa [2],inhibition of C1q binding (ranking in words) [3],further results
APPCAFHLGELVWCT (cysteine pairing not given here) [SEQ ID NO:18],0.380,0.880,,
APPCARHLGELVWCT (cysteine pairing not given here) [SEQ ID NO:16],0.768,0.709,next best result,
Asp-Cys-Ala-Phe-His-Leu-Gly-Glu-Leu-Val-Trp-Cys-Thr [SEQ ID NO:3],0.510,0.810,,
Ala-Pro-Pro-Asp-Cys-Ala-Trp-His-Leu-Gly-Glu-Leu-Val-Trp-Cys-Thr [SEQ ID NO:20],0.496,0.670,greatest inhibition of C1q binding,"% inhibition of IC binding, Fcγ1 [4]: 89%; Fcγ1 (read at 405 nm) [4]: 0.264; FcγIIa* (H131 allele) (read at 405 nm) [5]: 0.209; FcγIIb/c (read at 405 nm) [6]: 0.266; % inhibition of IC binding, FcγIIIb (NA2) [7]: 91%; FcγIIIb (NA2) (read at 405 nm) [7]: 0.266; DENV-IgG-IC binding to huFcγRIIa coated wells (ELISA reading) ([8]; 1:250 dilution of DENV2 (16681)-DENV convalescent IgG-IC, no peptide control 2.885): 0.265; DENV-IgG-IC binding to huFcγRIIa coated wells (ELISA reading) ([8]; 1:500 dilution of DENV2 (16681)-DENV convalescent IgG-IC, no peptide control 2.362): 0.289; inhibition of DENV2-anti-DENV convalescent IgG-IC binding to FcγIIa coated plates (in words) ([8]; summary of Table 5): marked ability to inhibit binding; inhibition of PAP-IC binding to recombinant DENV NS1 coated plates (in words) [9]: marked ability to inhibit the binding; OD405 [10]: 0.086; inhibition of PAP-IC binding to recombinant TNFα coated plates (in words) [10]: marked ability to inhibit the binding"
Asp-Cys-Ala-Trp-His-Leu-Gly-Glu-Leu-Val-Trp-Cys-Thr [SEQ ID NO:2],0.532,0.741,,OD405 FcγIIa (R131 allele) [11]: 0.561
APPCAWHLGELVWCT (cysteine pairing not given here) [SEQ ID NO:14],0.562,0.530,,

# — patent US8815813B2, “Methods for treating immune-mediated Dengue Fever infections and antibody-dependent enhancement of Dengue Fever infections, including Dengue Hemorrhagic Fever and Dengue Shock Syndrome” (priority 2008, dated 2014)
